Experiments:
[1] = molecular target: T1, wild type LRRK2 overexpressed in recombinant HEK-293T cells (Homo sapiens, UniProt Q5S007); test: pS935 LRRK2 Cell Assay (HTRF, phospho-LRRK2 Ser935); format: cell-based; conditions: LRRK2 Inhibition, Table 8, 2 hours compound incubation
T1 construct: host or cells: HEK293T (transient transfection with pCMV-LRRK2 WT plasmid)
Method in brief: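 Phospho-Ser935 LRRK2 measured by two-antibody HTRF (Eu-cryptate donor, d2 acceptor; 665/615 nm ratio) after overnight detection at 23° C. Before lysis, transiently LRRK2-transfected HEK-293T cells were exposed 2 h at 37° C to a 9-point, 3-fold series from 10 μM, with DMSO at 0.2%.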

LRRK2 wild type enzyme = LRRK2 wild type enzyme (Homo sapiens, UniProt Q5S007); test: Biochemical Assay: LRRK2 TR-FRET (LanthaScreen) kinase assay with LRRKtide substrate; conditions: LRRK2 Inhibition, Table 8
Chain of LRRK2 wild type enzyme (Q5S007 whole entry): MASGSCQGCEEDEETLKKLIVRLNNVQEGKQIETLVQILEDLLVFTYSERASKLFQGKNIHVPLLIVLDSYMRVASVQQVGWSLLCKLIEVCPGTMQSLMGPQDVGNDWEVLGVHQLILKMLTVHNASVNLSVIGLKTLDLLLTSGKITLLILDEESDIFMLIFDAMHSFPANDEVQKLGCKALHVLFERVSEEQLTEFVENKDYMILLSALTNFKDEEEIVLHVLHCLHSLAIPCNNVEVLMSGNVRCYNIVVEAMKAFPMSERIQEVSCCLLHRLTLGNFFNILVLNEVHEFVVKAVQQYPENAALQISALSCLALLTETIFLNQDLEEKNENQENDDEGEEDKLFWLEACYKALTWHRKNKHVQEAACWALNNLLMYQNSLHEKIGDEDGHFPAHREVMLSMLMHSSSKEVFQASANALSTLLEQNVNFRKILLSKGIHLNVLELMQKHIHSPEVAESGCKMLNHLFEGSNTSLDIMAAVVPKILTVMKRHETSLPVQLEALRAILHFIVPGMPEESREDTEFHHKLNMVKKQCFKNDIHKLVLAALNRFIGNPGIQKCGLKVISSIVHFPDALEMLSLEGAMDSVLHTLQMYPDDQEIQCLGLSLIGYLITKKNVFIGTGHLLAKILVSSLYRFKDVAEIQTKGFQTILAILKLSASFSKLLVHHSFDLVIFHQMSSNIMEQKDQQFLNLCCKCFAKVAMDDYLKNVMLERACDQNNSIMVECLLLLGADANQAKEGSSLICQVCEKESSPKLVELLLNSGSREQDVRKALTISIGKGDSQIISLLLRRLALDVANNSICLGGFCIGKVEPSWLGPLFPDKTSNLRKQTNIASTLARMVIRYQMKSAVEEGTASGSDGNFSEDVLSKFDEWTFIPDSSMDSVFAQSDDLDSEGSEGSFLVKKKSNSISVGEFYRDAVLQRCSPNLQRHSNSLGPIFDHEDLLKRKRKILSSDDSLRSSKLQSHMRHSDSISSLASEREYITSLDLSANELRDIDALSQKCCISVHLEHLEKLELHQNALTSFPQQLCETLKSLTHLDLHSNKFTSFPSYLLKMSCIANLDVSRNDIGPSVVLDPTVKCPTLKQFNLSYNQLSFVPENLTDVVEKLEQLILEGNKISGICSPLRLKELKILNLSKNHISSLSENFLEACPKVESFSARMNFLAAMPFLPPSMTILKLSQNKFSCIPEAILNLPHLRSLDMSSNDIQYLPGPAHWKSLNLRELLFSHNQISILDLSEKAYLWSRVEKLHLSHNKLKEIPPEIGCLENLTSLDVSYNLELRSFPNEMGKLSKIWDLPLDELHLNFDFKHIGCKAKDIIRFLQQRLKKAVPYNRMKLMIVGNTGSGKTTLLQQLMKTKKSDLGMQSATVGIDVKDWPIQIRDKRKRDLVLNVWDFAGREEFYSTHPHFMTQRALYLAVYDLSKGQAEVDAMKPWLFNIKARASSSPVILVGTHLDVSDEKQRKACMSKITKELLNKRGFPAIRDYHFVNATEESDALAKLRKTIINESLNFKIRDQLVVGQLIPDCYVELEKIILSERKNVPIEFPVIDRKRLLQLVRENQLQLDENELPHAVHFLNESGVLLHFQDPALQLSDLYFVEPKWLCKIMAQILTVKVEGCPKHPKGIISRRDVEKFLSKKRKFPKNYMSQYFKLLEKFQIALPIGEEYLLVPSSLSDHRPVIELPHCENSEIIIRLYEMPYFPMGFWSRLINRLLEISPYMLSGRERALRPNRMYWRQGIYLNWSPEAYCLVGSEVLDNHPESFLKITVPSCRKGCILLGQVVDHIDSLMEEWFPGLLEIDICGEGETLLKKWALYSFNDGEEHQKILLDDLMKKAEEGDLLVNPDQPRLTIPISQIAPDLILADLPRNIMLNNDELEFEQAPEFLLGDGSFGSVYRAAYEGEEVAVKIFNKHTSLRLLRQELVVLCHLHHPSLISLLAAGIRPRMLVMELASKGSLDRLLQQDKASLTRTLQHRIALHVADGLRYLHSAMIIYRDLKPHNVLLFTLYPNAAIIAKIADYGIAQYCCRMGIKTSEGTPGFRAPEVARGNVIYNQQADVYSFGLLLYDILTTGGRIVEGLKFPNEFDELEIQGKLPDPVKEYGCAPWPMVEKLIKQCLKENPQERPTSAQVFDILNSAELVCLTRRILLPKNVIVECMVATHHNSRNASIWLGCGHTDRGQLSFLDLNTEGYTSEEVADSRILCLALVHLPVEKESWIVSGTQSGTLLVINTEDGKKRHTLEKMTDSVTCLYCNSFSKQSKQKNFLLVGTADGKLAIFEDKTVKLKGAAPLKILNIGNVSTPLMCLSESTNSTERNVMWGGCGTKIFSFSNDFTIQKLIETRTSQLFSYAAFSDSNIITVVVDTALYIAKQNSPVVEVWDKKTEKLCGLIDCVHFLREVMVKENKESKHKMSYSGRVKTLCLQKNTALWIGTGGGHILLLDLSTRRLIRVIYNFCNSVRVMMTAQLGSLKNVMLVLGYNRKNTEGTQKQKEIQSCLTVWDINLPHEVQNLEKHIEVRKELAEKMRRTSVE
Method in brief: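 TR-FRET detection (Tb-labelled phospho-LRRKtide antibody, EDTA stop, 30 min) followed a 120 min, 23 °C reaction of 3 nM wild-type human LRRK2 with LRRKtide (400 nM) and ATP (25 μM) in Tris pH 8.0. Compounds: 11-point 3-fold series from 10 μM, 15 min enzyme preincubation.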

T1 sequence (Q5S007 whole entry): as above

Structure (SMILES) | IC50 [1] | IC50 (LRRK2 wild type enzyme)
CN1CC(n2c(C3CC(=O)N(CC4CC4)C3)nc3cnc4ccc(C#N)cc4c32)CCC1=O (single isomer, unassigned) [Compound 139] | 1600 nM | 56 nM
CC(=O)N1CCC(c2nc3cnc4ccc(C#N)cc4c3n2[C@@H]2CCO[C@H](C)C2)CC1 [Compound 116, 2-(1-acetylpiperidin-4-yl)-1-[(2R,4R)-2-methyloxan-4-yl]-1H-imidazo[4,5-c]quinoline-8-carbonitrile] | 343 nM | 1.26 nM
COc1ncc(NC(=O)Cc2nc3cnc4ccc(C#N)cc4c3n2[C@@H]2CCO[C@H](C)C2)c(C2CC2)n1 [Compound 278, N-(4-cyclopropyl-2-methoxy-5-pyrimidinyl){3-[(2R,4R)-2-methyltetrahydro-2H-pyran-4-yl]-12-cyano-3,5,8-triazatricyclo[7.4.0.0^2,6]trideca-1,4,6,8,10,12-hexaen-4-yl}acetamide] | 2 nM | 0.418 nM
C[C@@H]1C[C@H](n2c([C@H]3CN(c4cnn(C)c4)C(=O)O3)nc3cnc4ccc(C#N)cc4c32)CCO1 [Compound 124, 2-[(5R)-3-(1-methyl-1H-pyrazol-4-yl)-2-oxo-1,3-oxazolidin-5-yl]-1-[(2R,4R)-2-methyloxan-4-yl]-1H-imidazo[4,5-c]quinoline-8-carbonitrile] | 50.9 nM | 0.706 nM
C[C@@H]1C[C@H](n2c(CC(=O)N[C@@H]3C[C@H]3c3cccnc3)nc3cnc4ccc(C#N)cc4c32)CCO1 [Compound 348, N-[(1R,2S)-2-(3-pyridyl)cyclopropyl]{3-[(2R,4R)-2-methyltetrahydro-2H-pyran-4-yl]-12-cyano-3,5,8-triazatricyclo[7.4.0.0^2,6]trideca-1(9),2(6),4,7,10,12-hexaen-4-yl}acetamide] | 32.3 nM | 0.724 nM
C[C@@H]1C[C@H](n2c(CC(=O)NCC(C)(C)CO)nc3cnc4ccc(C#N)cc4c32)CCO1 [Compound 241, N-(3-hydroxy-2,2-dimethylpropyl){3-[(2R,4R)-2-methyltetrahydro-2H-pyran-4-yl]-12-cyano-3,5,8-triazatricyclo[7.4.0.0^2,6]trideca-1(9),2(6),4,7,10,12-hexaen-4-yl}acetamide] | 77.6 nM | 0.991 nM
C[C@@H]1C[C@H](n2c(CC(=O)Nc3ncccn3)nc3cnc4ccc(Cl)cc4c32)CCO1 [Compound 353, N-2-pyrimidinyl{3-[(2R,4R)-2-methyltetrahydro-2H-pyran-4-yl]-12-chloro-3,5,8-triazatricyclo[7.4.0.0^2,6]trideca-1(9),2(6),4,7,10,12-hexaen-4-yl}acetamide] | 1.84 nM | 0.395 nM
C[C@@H]1C[C@H](n2c(CC(=O)N[C@@H](C)C3CC3)nc3cnc4ccc(C#N)cc4c32)CCO1 [Compound 8, 2-{8-cyano-1-[(2R,4R)-2-methyloxan-4-yl]-1H-imidazo[4,5-c]quinolin-2-yl}-N-[(1S)-1-cyclopropylethyl]acetamide] | 118 nM | 1.49 nM
C[C@@H]1C[C@H](n2c(CC(=O)NC3CCCC3)nc3cnc4ccc(C#N)cc4c32)CCO1 [Compound 336, N-cyclopentyl{3-[(2R,4R)-2-methyltetrahydro-2H-pyran-4-yl]-12-cyano-3,5,8-triazatricyclo[7.4.0.0^2,6]trideca-1(9),2(6),4,7,10,12-hexaen-4-yl}acetamide] | 10.2 nM | 0.732 nM
C[C@@H]1C[C@H](n2c(CC(=O)NC[C@@H]3CCCO3)nc3cnc4ccc(C#N)cc4c32)CCO1 [Compound 154, 2-{8-cyano-1-[(2R,4R)-2-methyloxan-4-yl]-1H-imidazo[4,5-c]quinolin-2-yl}-N-{[(2S)-oxolan-2-yl]methyl}acetamide] | 39.2 nM | 0.674 nM
C[C@@H]1C[C@H](n2c(C3CC(=O)N(CC4CC4)C3)nc3cnc4ccc(Cl)cc4c32)CCO1 (stereo partly drawn) [Compound 3, 4-{8-chloro-1-[(2R,4R)-2-methyloxan-4-yl]-1H-imidazo[4,5-c]quinolin-2-yl}-1-(cyclopropylmethyl)pyrrolidin-2-one] | 88.7 nM | 1.21 nM
